According to a melting point compilation (Tetko et al.; mined from patent text by program, amines drawn as free bases though some values may be those of a salt):

| Structure (SMILES) | melting point [°C] |
| --- | --- |
| CCc1ccc2oc(C(=O)Nc3ccc(-c4ccc(S(=O)(=O)NC(C(=O)OC)C(C)C)cc4)cc3)c(C)c2c1OCc1ccccc1 (stereo not drawn) | 191 to 193 |
| Cc1nccn1-c1nc(-c2ccc(Cl)cc2)c(CCCOc2ccccc2O)o1 | 110 to 111 |
| CC(c1ccc(O)cc1)(c1ccc(O)cc1)c1ccc2ccccc2c1 | 185 to 186 |
| O=C(C1CCN(S(=O)(=O)c2ccc(Cl)cc2)CC1)N1CCN(c2ccncn2)CC1 | 125 to 128 |
| CCOCc1nc2c(N)nc3cc(N4CCCCC4)ccc3c2n1CCCOC(C)C | 182 to 184 |
| O=C(Nc1cc(Cl)cc(Cl)c1)c1ccc(Cl)cc1O | 255 to 256 |
| Cc1cc(C)cc(S(=O)(=O)c2c(C(=O)O)[nH]c3ccc(Cl)cc23)c1 | 277 to 278 |
| Cc1ccc(-c2c(N=[N+]=[N-])ncnc2OCCO)cc1 | 83.5 to 85 |
| CCOC(=O)C1(C(=O)Nc2ccc(Br)cc2C)OC1C (stereo not drawn) | 57 to 60 |
| O=C1c2ccccc2-c2[nH]c(=O)c(-c3ccccc3)nc21 | > 300 |
| N#Cc1ccc(N2CCOCC2)c2ccccc12 | 128 to 129 |
| CSCc1cn(C)c2ccc(C)cc2c1=O | 142 to 143 |
| c1ccc(NC2=NC3CCCc4cccc(c43)N2)cc1 (stereo not drawn) | 233 to 235 |
| CCCCn1c(=O)c2nn(S(=O)(=O)c3cccc(C(F)(F)F)c3)cc2n(CCCC)c1=O | 163 to 165 |
| O=C(c1ccc(Nc2ccnc3cc(C(F)(F)F)ccc23)cc1)N1CCN(S(=O)(=O)c2ccc(Cl)cc2)CC1 | 234 to 236 |
| CC(=O)C=Cc1ccccc1O | 136 to 137 |
| CC[C@H](C)[C@H](Nc1nc2ccccc2c(=O)o1)C(=O)OC | 86 to 87 |
| COc1ccc(-c2c(Cl)c(CN3C(=O)CCC3=O)nc3sc4c(c23)CC[C@H](C(N)=O)C4)cc1 | 282 to 283 |
| ON=C(CCC(CN1CCN(c2ccccn2)CC1)C(=NO)c1ccccc1)c1ccccc1 (stereo not drawn) | 75 to 78 |
| Cc1c(-c2ccncc2)[nH]c(-c2ccncc2)c1C(N)=O | 212 to 215 |

Other lines, results leading:

| melting point [°C] | Structure (SMILES) |
| --- | --- |
| 224 to 227 | O=C(O)C1CCc2c(c3cc(O)ccc3n2C(=O)c2ccccc2)C1 (stereo not drawn) |
| 98 to 100 | CCOC(=O)C1=C(C)NC(=S)N(C(=O)OCC)C1c1cccc(C(F)(F)F)c1 (stereo not drawn) |
| 138 to 139 | CNC(=O)N(O)CCOc1ccc2c(c1)CCN(CCCc1ccccc1)C2=O |
| 274 to 275 | Cn1cc(-c2ccc(C(=O)O)cc2)cn1 |
| 111 to 113 | COC(=O)[C@H](Cc1ccccc1)NC(=O)[C@H](Cc1ccccc1)NC(=O)c1cnccn1 |
| > 300 | O=C(O)c1ccccc1Sc1c(O)c2c(Cl)cc(Cl)cc2[nH]c1=O |
| 190 | Cc1[nH]c2cccc(NC(=O)NCc3ccc(Br)cc3)c2c1C |
| 182 to 184 | O=C(O)CCCNC(=O)c1ccccc1NC(=O)c1ccc(Cl)cc1 |
| 112 | CN(Cc1ccc(C=CC(=O)O)cc1)S(=O)(=O)c1ccccc1 |
| 92 to 94 | CN(C)CCCN(C(=O)Cc1ccccc1)c1ccccc1SCc1ccc(Cl)cc1 |
| 131 to 133 | NS(=O)(=O)Oc1ccc(C(=O)c2ccccc2)cc1 |
| 232 to 233 | COc1ccc(CNC(=O)c2cc3c(=O)n(C[C@H]4CC[C@H](C(=O)O)CC4)cnc3cn2)cc1 |
| 149 to 151 | O=C(CSc1ccc(O)cc1)NC(=O)c1ccccc1 |
| 90 to 91 | CC(C)Oc1cc(CCCOc2ncccc2CC(=O)O)n(Cc2ccc(F)cc2Cl)n1 |
| 84 to 85 | CC(C)(Cc1cccc(Oc2cccc(CC(C)(C)C(=O)O)c2)c1)C(=O)O |
| 230 to 232 | O=C(c1ccc(O)cc1)c1cc(C(=O)c2ccc(O)cc2)cc([N+](=O)[O-])c1 |
| 99 to 102 | O=C(OCc1ccccc1)c1cc2cc(OCc3ccccc3)ccc2cc1OCc1ccccc1 |
| 160 to 162 | CCCCc1oc2ccccc2c1C(=O)c1ccc2c(Br)c(OCc3nnn[nH]3)ccc2c1 |
